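96-well plates; 48 h exposure; 5 concentrations. Endpoints by linear interpolation between flanking doses. Not reached: highest tested concentration assigned. TGI denotes the concentration required for complete inhibition of growth.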
Assays:
Experiment in all cases: DTP human tumour cell line panel, 48 h
[1] = tested on: 786-0 renal
[2] = tested on: A549 NSCLC
[3] = tested on: ACHN renal
[4] = tested on: BT-549 breast
[5] = tested on: CAKI-1 renal
[6] = tested on: CCRF-CEM leukemia
[7] = tested on: DU-145 prostate
[8] = tested on: EKVX NSCLC
[9] = tested on: HCT-116 colon
[10] = tested on: HCT-15 colon
[11] = tested on: HL-60(TB) leukemia
[12] = tested on: HOP-62 NSCLC
[13] = tested on: HS 578T breast
[14] = tested on: HT29 colon
[15] = tested on: IGROV1 ovarian
[16] = tested on: K-562 leukemia
[17] = tested on: KM12 colon
[18] = tested on: LOX IMVI melanoma
[19] = tested on: M14 melanoma
[20] = tested on: MALME-3M melanoma
[21] = tested on: MCF7 breast
[22] = tested on: MDA-MB-231 breast
[23] = tested on: MDA-MB-435
[24] = tested on: MDA-N
[25] = tested on: MOLT-4 leukemia
[26] = tested on: NCI-H226 lung
[27] = tested on: NCI-H23 lung
[28] = tested on: NCI-H460 lung
[29] = tested on: NCI-H522 lung
[30] = tested on: NCI/ADR-RES ovarian
[31] = tested on: OVCAR-3 ovarian
[32] = tested on: OVCAR-4 ovarian
[33] = tested on: OVCAR-5 ovarian
[34] = tested on: OVCAR-8 ovarian
[35] = tested on: PC-3 prostate
[36] = tested on: RXF 393 renal
[37] = tested on: SF-268 CNS
[38] = tested on: SF-295 CNS
[39] = tested on: SK-MEL-28 melanoma
[40] = tested on: SK-MEL-5 melanoma
[41] = tested on: SK-OV-3 ovarian
[42] = tested on: SN12C renal
[43] = tested on: SNB-19 CNS
[44] = tested on: SNB-75 CNS
[45] = tested on: SR leukemia
[46] = tested on: T-47D breast
[47] = tested on: TK-10 renal
[48] = tested on: U251 CNS
[49] = tested on: UACC-257 melanoma
[50] = tested on: UACC-62 melanoma
[51] = tested on: UO-31 renal
[52] = tested on: A498 renal
[53] = tested on: COLO 205 colon
[54] = tested on: HOP-92 NSCLC
[55] = tested on: RPMI-8226 leukemia
[56] = tested on: SF-539 CNS
[57] = tested on: SK-MEL-2 melanoma
[58] = tested on: SW-620 colon

Measured: TGI

CC1=CC(=O)C(=C(C)C)CC1
> 100 µM: [1] | [2] | [3] | [4] | [5] | [6] | [7] | [8] | [9] | [10] | [11] | [12] | [13] | [14] | [15] | [16] | [17] | [18] | [19] | [20] | [21] | [22] | [23] | [24] | [25] | [26] | [27] | [28] | [29] | [30] | [31] | [32] | [33] | [34] | [35] | [36] | [37] | [38] | [39] | [40] | [41] | [42] | [43] | [44] | [45] | [46] | [47] | [48] | [49] | [50] | [51]

CCOc1cc(C(c2c(O)c3ccccc3oc2=O)c2c(O)c3ccccc3oc2=O)ccc1OC
38.3 µM: [46]
36.3 µM: [29]
40.1 µM: [1] | [33]
52.4 µM: [11]
32.7 µM: [15]
36.6 µM: [24]
29.5 µM: [48]
33.3 µM: [31] | [35]
52.6 µM: [27]
34.8 µM: [20]
36.4 µM: [53]
31.9 µM: [3] | [22]
98.9 µM: [25]
73.3 µM: [30]
34.6 µM: [49]
41.4 µM: [4]
40.3 µM: [42]
32.8 µM: [54]
42.6 µM: [56]
44.6 µM: [40]
65.9 µM: [14]
72.2 µM: [39]
32.9 µM: [41]
38.8 µM: [37]
37.6 µM: [7]
34.1 µM: [32]
30.5 µM: [5]
37.9 µM: [9]
33.2 µM: [50]
32 µM: [23]
59.1 µM: [26]
77.5 µM: [13]
42.2 µM: [57]
43.7 µM: [21]
61.8 µM: [43]
41.7 µM: [38]
32.1 µM: [47]
42.4 µM: [34]
47.6 µM: [10]
36.5 µM: [17]
> 100 µM: [2] | [6] | [16] | [45] | [58]
44.3 µM: [8]
89.9 µM: [55]
45.8 µM: [18] | [51]
39.9 µM: [12]
38.9 µM: [52] | [19]

O=c1n(N=S(=O)(c2ccccc2)c2ccccc2)c(=O)n2n1C1C=CC2CC1
> 100 µM: [1] | [52] | [2] | [3] | [4] | [5] | [6] | [53] | [7] | [8] | [9] | [10] | [11] | [12] | [54] | [13] | [14] | [15] | [16] | [17] | [18] | [19] | [21] | [22] | [23] | [24] | [25] | [26] | [27] | [28] | [30] | [31] | [33] | [34] | [35] | [55] | [37] | [38] | [56] | [57] | [39] | [40] | [41] | [42] | [43] | [44] | [45] | [58] | [46] | [47] | [48] | [49] | [50] | [51]

From PubChem BioAssay (NCI)
